In ChEMBL document CHEMBL1143467, “Synthesis of potent and selective serotonin 5-HT1B receptor ligands” (Bioorg Med Chem Lett, 2005) one finds Ki data, which are given here for nine molecules.

One experiment has as its target Histamine H1 receptor (Homo sapiens, UniProt P35367). Nature of the experiment: Affinity towards cloned Histamine H1 receptor.
The target of the next experiment is T1, D(4) dopamine receptor (Homo sapiens, UniProt P21917).
T1 sequence (P21917 whole entry): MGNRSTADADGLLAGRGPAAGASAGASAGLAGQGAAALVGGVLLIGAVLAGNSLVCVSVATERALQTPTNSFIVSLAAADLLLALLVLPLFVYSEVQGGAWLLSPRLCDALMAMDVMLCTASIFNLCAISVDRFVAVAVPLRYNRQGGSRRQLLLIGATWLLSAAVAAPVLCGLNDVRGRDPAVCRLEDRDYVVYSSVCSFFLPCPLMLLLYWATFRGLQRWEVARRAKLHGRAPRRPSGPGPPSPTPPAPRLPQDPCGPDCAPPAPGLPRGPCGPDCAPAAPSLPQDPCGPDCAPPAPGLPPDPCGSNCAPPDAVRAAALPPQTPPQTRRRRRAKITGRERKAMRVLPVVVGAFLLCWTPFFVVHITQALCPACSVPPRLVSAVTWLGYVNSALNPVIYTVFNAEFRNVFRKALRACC
Nature of the experiment: Affinity towards cloned Dopamine receptor D4.

A further experiment addresses D(1A) dopamine receptor (Homo sapiens, UniProt P21728). Kind of experiment: Affinity towards cloned Dopamine receptor D1.
For experiment [1], the target named is T2, Muscarinic acetylcholine receptor M2 (Homo sapiens, UniProt P08172).
T2 sequence (P08172 whole entry): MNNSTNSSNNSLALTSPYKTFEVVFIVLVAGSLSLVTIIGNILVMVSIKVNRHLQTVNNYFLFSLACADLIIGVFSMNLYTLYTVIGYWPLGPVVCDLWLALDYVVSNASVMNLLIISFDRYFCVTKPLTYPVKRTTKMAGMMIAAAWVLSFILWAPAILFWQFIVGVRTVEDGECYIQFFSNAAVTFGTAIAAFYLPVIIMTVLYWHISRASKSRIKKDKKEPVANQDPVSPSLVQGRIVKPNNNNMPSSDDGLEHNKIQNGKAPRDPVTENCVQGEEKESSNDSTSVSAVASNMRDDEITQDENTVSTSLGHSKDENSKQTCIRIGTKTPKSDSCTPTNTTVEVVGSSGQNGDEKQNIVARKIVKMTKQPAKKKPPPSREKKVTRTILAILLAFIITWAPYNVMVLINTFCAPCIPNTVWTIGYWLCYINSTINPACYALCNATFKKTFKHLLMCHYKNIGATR
Nature of the experiment: Affinity towards cloned Muscarinic acetylcholine receptor M2.

The target in a further experiment is D(1B) dopamine receptor (Homo sapiens, UniProt P21918). Kind of experiment: Affinity towards cloned Dopamine receptor D5.
The target of experiment [2] is 5-hydroxytryptamine receptor 1B (Homo sapiens, UniProt P28222). Nature of the experiment: In vitro binding affinity towards cloned human 5-HT1B receptor using [3H]5-carboximidotryptamine as radioligand.
Another experiment concerns the target D(3) dopamine receptor (Homo sapiens, UniProt P35462). Nature of the experiment: Affinity towards cloned Dopamine receptor D3.
Experiment [3] concerns the target 5-hydroxytryptamine receptor 1D (Homo sapiens, UniProt P28221). Nature of the experiment: In vitro binding affinity towards cloned human 5-HT1D receptor using [3H]5-carboximidotryptamine as radioligand.
Experiment [4] can be described thus: Affinity towards cloned Nicotinic acetylcholine receptor.
In experiment [5] the target is 5-hydroxytryptamine receptor 6 (Homo sapiens, UniProt P50406). Nature of the experiment: In vitro binding affinity towards cloned human 5-HT6 receptor using [3H]5-carboximidotryptamine as radioligand.
For experiment [6], the target named is T3, Muscarinic acetylcholine receptor M5 (Homo sapiens, UniProt P08912).
T3 sequence (P08912 whole entry): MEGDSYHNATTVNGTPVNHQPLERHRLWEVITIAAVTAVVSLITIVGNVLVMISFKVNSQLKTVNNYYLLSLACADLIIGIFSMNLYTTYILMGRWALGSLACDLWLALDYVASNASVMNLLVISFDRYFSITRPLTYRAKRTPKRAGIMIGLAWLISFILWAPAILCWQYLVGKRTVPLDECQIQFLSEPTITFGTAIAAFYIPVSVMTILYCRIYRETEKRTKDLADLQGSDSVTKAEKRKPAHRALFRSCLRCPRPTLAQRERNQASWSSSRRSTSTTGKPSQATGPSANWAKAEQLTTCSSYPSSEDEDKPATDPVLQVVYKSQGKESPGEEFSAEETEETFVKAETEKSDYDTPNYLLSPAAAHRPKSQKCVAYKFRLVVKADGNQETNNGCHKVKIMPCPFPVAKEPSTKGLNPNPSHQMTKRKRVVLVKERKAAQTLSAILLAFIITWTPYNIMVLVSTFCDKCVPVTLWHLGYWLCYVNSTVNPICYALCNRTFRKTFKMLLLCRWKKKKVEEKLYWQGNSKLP
Kind of experiment: Affinity towards cloned Muscarinic acetylcholine receptor M5.

The target in experiment [7] is Kappa-type opioid receptor (Homo sapiens, UniProt P41145). Kind of experiment: Affinity towards cloned Opioid receptor kappa 1.
In experiment [8] the target is 5-hydroxytryptamine receptor 7 (Homo sapiens, UniProt P34969). Nature of the experiment: In vitro binding affinity towards cloned human 5-HT7 receptor using [3H]5-carboximidotryptamine as radioligand.
Experiment [9] concerns the target Delta-type opioid receptor (Homo sapiens, UniProt P41143). Kind of experiment: Affinity towards cloned Opioid receptor delta 1.
The next experiment deals with Mu-type opioid receptor (Homo sapiens, UniProt P35372). Nature of the experiment: Affinity towards cloned Opioid receptor mu 1.
The target in experiment [10] is T4, 5-hydroxytryptamine receptor 2C (Homo sapiens, UniProt P28335).
T4 sequence (P28335 whole entry): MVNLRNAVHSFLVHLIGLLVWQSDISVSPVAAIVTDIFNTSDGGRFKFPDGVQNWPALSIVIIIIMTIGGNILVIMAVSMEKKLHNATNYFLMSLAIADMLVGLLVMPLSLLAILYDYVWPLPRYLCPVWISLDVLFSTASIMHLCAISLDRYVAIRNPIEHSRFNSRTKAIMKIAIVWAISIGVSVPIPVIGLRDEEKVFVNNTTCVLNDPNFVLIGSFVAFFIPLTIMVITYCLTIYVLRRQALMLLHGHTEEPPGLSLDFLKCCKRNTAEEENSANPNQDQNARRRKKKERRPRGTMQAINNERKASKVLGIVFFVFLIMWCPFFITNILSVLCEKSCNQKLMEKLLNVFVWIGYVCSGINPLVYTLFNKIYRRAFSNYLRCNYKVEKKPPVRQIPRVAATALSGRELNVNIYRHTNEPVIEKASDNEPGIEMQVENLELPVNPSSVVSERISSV
Nature of the experiment: In vitro binding affinity towards cloned human 5-HT2C receptor using [3H]5-carboximidotryptamine as radioligand.

The structures appear in SMILES notation.

Sequence of 5-hydroxytryptamine receptor 6 (P50406 whole entry): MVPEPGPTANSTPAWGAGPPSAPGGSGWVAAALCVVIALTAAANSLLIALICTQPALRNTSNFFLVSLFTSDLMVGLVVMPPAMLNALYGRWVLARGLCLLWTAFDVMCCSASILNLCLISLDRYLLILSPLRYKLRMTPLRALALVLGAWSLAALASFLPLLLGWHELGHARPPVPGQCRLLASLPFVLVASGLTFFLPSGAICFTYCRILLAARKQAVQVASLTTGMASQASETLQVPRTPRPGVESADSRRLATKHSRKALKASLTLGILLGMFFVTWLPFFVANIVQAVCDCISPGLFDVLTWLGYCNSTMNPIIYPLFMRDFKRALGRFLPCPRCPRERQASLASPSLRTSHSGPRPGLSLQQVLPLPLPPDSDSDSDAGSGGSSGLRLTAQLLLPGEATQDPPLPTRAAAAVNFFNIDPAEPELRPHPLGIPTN
Sequence of 5-hydroxytryptamine receptor 7 (P34969 whole entry): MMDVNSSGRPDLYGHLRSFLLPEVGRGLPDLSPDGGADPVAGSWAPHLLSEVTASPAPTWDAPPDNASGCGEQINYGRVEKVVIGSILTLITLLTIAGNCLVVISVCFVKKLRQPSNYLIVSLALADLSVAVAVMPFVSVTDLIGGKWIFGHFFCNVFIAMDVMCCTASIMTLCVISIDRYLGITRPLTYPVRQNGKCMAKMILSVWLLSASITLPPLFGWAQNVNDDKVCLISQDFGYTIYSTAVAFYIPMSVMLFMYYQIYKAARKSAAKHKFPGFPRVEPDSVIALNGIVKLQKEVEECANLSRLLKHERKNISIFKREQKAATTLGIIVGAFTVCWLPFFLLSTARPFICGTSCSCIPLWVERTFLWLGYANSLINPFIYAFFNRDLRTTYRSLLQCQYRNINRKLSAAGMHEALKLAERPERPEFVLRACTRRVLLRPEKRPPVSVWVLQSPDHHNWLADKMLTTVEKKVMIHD
Sequence of Kappa-type opioid receptor (P41145 whole entry): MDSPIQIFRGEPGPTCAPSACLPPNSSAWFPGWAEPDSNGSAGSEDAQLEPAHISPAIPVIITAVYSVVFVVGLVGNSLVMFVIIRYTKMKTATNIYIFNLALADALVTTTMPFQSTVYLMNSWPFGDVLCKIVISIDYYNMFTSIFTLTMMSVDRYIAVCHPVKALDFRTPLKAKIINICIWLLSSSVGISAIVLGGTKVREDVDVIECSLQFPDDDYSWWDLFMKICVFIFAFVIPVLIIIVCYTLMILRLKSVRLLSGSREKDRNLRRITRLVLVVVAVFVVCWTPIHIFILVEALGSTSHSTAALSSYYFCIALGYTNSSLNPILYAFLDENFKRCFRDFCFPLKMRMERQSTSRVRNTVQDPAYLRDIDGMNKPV
Sequence of D(3) dopamine receptor (P35462 whole entry): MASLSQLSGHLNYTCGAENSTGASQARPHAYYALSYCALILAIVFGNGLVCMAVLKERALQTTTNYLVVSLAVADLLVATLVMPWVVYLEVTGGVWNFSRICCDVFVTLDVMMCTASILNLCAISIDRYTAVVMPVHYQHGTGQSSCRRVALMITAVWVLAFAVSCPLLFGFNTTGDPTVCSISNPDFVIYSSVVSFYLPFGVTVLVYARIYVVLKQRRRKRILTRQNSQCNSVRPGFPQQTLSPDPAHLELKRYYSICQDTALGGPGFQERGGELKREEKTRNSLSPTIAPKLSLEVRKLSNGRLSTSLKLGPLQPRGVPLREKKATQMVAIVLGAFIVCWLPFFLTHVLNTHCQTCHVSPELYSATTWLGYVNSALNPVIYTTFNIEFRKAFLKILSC
Sequence of 5-hydroxytryptamine receptor 1D (P28221 whole entry): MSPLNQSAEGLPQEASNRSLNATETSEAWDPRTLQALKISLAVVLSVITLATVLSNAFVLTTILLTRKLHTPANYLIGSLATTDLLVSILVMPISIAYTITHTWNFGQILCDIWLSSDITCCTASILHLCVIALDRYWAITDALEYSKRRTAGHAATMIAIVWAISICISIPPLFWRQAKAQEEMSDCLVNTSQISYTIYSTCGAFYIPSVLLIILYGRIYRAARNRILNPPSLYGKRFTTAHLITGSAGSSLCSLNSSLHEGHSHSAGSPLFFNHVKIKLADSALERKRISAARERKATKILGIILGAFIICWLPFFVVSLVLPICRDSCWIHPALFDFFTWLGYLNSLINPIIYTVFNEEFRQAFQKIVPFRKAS
Sequence of 5-hydroxytryptamine receptor 1B (P28222 whole entry): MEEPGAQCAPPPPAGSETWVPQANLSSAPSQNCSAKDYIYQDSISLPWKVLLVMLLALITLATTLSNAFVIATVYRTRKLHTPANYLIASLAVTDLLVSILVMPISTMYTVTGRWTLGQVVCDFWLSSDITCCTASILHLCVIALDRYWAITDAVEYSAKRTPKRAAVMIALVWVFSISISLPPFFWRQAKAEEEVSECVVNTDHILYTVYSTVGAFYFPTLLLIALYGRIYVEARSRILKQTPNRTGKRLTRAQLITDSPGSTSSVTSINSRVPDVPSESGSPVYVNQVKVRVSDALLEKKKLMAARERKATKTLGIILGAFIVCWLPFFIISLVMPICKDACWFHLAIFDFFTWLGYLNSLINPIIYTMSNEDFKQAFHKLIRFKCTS
Sequence of Delta-type opioid receptor (P41143 whole entry): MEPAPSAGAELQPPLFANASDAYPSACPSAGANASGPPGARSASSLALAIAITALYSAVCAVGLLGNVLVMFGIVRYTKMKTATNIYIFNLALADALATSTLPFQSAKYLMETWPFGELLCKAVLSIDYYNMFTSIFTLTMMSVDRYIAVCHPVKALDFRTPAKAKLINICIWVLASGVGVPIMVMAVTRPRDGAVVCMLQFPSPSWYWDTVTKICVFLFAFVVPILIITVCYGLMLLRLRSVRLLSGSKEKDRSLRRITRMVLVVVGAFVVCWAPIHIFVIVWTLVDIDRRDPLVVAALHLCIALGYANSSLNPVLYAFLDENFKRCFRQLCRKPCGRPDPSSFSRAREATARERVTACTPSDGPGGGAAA
Sequence of Histamine H1 receptor (P35367 whole entry): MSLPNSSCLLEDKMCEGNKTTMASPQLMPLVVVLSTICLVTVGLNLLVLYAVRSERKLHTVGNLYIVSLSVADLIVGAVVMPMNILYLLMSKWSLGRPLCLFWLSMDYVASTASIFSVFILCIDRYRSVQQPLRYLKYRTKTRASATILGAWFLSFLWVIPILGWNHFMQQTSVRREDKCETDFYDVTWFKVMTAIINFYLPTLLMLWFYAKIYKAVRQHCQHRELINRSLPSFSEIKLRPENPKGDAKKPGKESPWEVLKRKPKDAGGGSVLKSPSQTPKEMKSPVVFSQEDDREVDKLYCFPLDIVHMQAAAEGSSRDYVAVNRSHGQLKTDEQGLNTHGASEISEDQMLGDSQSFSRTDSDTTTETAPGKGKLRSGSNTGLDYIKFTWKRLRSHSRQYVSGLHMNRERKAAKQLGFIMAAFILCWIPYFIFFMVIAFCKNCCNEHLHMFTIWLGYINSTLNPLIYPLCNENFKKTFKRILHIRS
Sequence of D(1B) dopamine receptor (P21918 whole entry): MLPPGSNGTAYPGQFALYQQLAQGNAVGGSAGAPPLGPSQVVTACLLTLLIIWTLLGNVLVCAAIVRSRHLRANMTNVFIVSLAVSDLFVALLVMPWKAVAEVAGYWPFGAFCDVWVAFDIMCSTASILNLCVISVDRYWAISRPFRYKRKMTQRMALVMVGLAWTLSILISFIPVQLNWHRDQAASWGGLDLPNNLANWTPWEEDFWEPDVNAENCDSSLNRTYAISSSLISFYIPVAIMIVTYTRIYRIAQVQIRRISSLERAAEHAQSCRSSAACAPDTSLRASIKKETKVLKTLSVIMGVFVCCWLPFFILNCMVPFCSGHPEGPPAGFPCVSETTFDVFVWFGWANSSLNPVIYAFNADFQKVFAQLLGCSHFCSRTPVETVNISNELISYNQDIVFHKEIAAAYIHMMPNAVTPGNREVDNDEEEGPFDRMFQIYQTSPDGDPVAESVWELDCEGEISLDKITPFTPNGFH
Sequence of D(1A) dopamine receptor (P21728 whole entry): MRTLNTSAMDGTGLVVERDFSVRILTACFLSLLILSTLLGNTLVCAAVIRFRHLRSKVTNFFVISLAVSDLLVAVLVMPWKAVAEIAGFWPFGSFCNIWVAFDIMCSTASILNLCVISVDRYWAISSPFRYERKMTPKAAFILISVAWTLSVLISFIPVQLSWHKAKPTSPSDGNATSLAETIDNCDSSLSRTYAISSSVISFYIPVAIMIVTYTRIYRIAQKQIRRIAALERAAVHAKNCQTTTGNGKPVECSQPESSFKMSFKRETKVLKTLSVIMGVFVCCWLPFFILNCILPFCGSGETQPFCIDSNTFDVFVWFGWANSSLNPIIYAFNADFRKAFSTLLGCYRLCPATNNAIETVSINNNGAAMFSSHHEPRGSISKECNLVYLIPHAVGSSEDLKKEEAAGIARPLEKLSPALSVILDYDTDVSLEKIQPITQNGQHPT
Sequence of Mu-type opioid receptor (P35372 whole entry): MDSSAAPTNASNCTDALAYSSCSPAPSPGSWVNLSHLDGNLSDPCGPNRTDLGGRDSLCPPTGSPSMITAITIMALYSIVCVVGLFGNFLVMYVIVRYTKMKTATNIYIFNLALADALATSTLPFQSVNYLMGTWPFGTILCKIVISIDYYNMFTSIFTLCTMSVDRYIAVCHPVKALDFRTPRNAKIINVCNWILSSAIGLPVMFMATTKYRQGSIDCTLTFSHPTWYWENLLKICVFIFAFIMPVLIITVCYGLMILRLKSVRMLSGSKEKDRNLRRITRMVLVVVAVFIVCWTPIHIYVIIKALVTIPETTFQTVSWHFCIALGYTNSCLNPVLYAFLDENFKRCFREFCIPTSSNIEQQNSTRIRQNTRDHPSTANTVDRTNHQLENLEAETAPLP

For the molecule `COc1ccc(NC(=O)N2CCN(c3ccc(F)cc3)CC2)cc1N1CCN(C)CC1`, the Ki at Histamine H1 receptor was above 10 µM; at D(4) dopamine receptor, above 10 µM; on D(1A) dopamine receptor, above 10 µM; in experiment [1], above 10 µM; at D(1B) dopamine receptor, above 10 µM; in [2], 0.0383 µM. The Ki on D(3) dopamine receptor is above 10 µM; in [3] it was 0.168 µM; in [4], above 10 µM; in experiment [5], above 10 µM; in experiment [6], above 10 µM; in experiment [7], above 10 µM. For the same molecule, the Ki (in experiment [8]; in experiment [9]; on Mu-type opioid receptor; in experiment [10]) was above 10 µM throughout.
`COc1ccccc1N1CCC(C(=O)Nc2ccc(OC)c(N3CCN(C)CC3)c2)CC1`: the Ki on Histamine H1 receptor was above 10 µM; on D(4) dopamine receptor it was above 10 µM; at D(1A) dopamine receptor it was above 10 µM; in experiment [1], above 10 µM; at D(1B) dopamine receptor it was above 10 µM; in [2], 0.00968 µM. Further, the Ki was above 10 µM on D(3) dopamine receptor; 0.0154 µM in [3]; above 10 µM in experiment [4]; above 10 µM in [6]; above 10 µM in [7]; above 10 µM in [9]. For the same molecule, the Ki is above 10 µM on Mu-type opioid receptor and 9.95 µM in experiment [10].
Take `COc1ccc(NC(=O)N2CCN(c3ccccc3F)CC2)cc1N1CCN(C)CC1`: the Ki at Histamine H1 receptor is above 10 µM; at D(4) dopamine receptor, above 10 µM; at D(1A) dopamine receptor, above 10 µM; in [1], above 10 µM; at D(1B) dopamine receptor it was above 10 µM; in experiment [2], 0.0181 µM. The inhibitory constant (Ki) is above 10 µM at D(3) dopamine receptor; 0.103 µM in experiment [3]; above 10 µM in experiment [4]; 0.841 µM in [5]; above 10 µM in experiment [6]; above 10 µM in experiment [7]. In addition, the Ki in experiment [8] was above 10 µM; in experiment [9], above 10 µM; at Mu-type opioid receptor, above 10 µM; in experiment [10], 1.08 µM.
For `COc1ccc(NC(=O)N2CCN(c3ccc(C(F)(F)F)cc3)CC2)cc1N1CCN(C)CC1`, the Ki at Histamine H1 receptor is above 10 µM; on D(4) dopamine receptor it was above 10 µM; on D(1A) dopamine receptor, above 10 µM; in [1], above 10 µM; at D(1B) dopamine receptor it was above 10 µM; in experiment [2], 0.0284 µM. Further, the Ki is above 10 µM at D(3) dopamine receptor; 0.345 µM in experiment [3]; above 10 µM in experiment [4]; 2.86 µM in experiment [5]; above 10 µM in [6]; above 10 µM in [7]. Further, the Ki is above 10 µM in experiment [8], above 10 µM in [9], above 10 µM at Mu-type opioid receptor and 2.83 µM in experiment [10].
As to `COc1ccc(NC(=O)N2CCN(c3ccc(-c4ccccc4)cc3)CC2)cc1N1CCN(C)CC1`, the Ki at Histamine H1 receptor was above 10 µM; on D(4) dopamine receptor, above 10 µM; at D(1A) dopamine receptor, above 10 µM; in [1] it was above 10 µM; on D(1B) dopamine receptor, above 10 µM; in [2] it was 0.0137 µM. Further, the Ki on D(3) dopamine receptor was above 10 µM; in experiment [3], 0.209 µM; in experiment [4], above 10 µM; in experiment [5] it was 1.43 µM; in experiment [6], above 10 µM; in experiment [7], above 10 µM. The Ki in experiment [8] was above 10 µM; in [9], above 10 µM; on Mu-type opioid receptor it was above 10 µM; in [10], 0.0065 µM.
In the case of `COc1ccc(NC(=O)N2CCN(c3ccc(SC)cc3)CC2)cc1N1CCN(C)CC1`, the Ki on Histamine H1 receptor is above 10 µM; on D(4) dopamine receptor, above 10 µM; on D(1A) dopamine receptor, above 10 µM; in [1] it was above 10 µM; at D(1B) dopamine receptor, above 10 µM; in [2], 0.0167 µM. Moreover, the Ki was above 10 µM on D(3) dopamine receptor; 0.329 µM in [3]; above 10 µM in [4]; above 10 µM in experiment [5]; above 10 µM in experiment [6]; above 10 µM in experiment [7]. The Ki in experiment [8] is above 10 µM; in experiment [9], above 10 µM; on Mu-type opioid receptor, above 10 µM; in experiment [10], 1.14 µM.
Turning to `COc1ccc(NC(=O)N2CCN(c3ccccc3Cl)CC2)cc1N1CCN(C)CC1`, the Ki at Histamine H1 receptor is above 10 µM; at D(4) dopamine receptor, above 10 µM; on D(1A) dopamine receptor, above 10 µM; in experiment [1], above 10 µM; at D(1B) dopamine receptor it was above 10 µM; in experiment [2], 0.0113 µM. The Ki on D(3) dopamine receptor was above 10 µM; in experiment [3] it was 0.0347 µM; in [4], above 10 µM; in experiment [5], 0.469 µM; in [6] it was above 10 µM; in experiment [7] it was above 10 µM. Further, the Ki in experiment [8] is 0.342 µM; in [9], above 10 µM; on Mu-type opioid receptor, above 10 µM; in experiment [10], 1.24 µM.
With `COc1ccc(NC(=O)N2CCN(c3ccc(Cl)cc3)CC2)cc1N1CCN(C)CC1`, the Ki on Histamine H1 receptor is above 10 µM; at D(4) dopamine receptor, above 10 µM; at D(1A) dopamine receptor, above 10 µM; in [1], above 10 µM; on D(1B) dopamine receptor, above 10 µM; in experiment [2], 0.00182 µM. Moreover, the Ki at D(3) dopamine receptor was above 10 µM; in experiment [3], 0.00651 µM; in experiment [4] it was above 10 µM; in [5] it was 5.09 µM; in experiment [6] it was above 10 µM; in experiment [7] it was above 10 µM. Moreover, the Ki was above 10 µM in experiment [8], above 10 µM in experiment [9], above 10 µM at Mu-type opioid receptor and 0.267 µM in experiment [10].
Turning to `COc1ccc(NC(=O)c2ccc(-c3ccc(-c4noc(C)n4)cc3C)cc2)cc1N1CCN(C)CC1` [GR-127935], the Ki on Histamine H1 receptor was above 10 µM; on D(4) dopamine receptor, above 10 µM; at D(1A) dopamine receptor, above 10 µM; in [1] it was above 10 µM; on D(1B) dopamine receptor it was above 10 µM; in [2] it was 0.00431 µM. Moreover, the Ki (on D(3) dopamine receptor; in experiment [4]; in [5]; in experiment [6]; in experiment [7]; in experiment [8]) was above 10 µM each time. Further, the Ki in experiment [9] was above 10 µM; on Mu-type opioid receptor it was above 10 µM; in experiment [10], 0.105 µM.

For orientation: Ki means a measure of affinity in units of concentration, obtained from inhibition or displacement. Lower therefore signals higher affinity.
